Measurements taken from patent publication US6699497B1 (Alza Corporation, priority 1998, dated 2004).
Structures can show the parent of a compound that is named as a salt.

Tests used:
[1] = in vitro transdermal flux of fenoldopam through human epidermis; format: in vitro ADME
Excerpt: The resulting mix was then calendered to a 5 mil thickness between 2 release liners. The drug reservoir was then heat laminated to a Medpar® backing on one surface and a 3M acrylate adhesive on the other. Circular systems were cut with a stainless steel punch.
The release liner of the matrix system was then removed and each system had its exposed edges masked. The systems were then mounted on a Teflon® holder of a release rate rod using nylon mesh and nickel wire. A known volume of receptor solution (30 ml 0.01 M phosphate buffer solution at pH 2.5) was then placed in a test tube and equilibrated at 35° C. The test tube was placed in a water bath and maintained at 35° C. The Teflon rod with attached system was then reciprocated within the test tube by attaching the rod to a motor which caused constant vertical mixing.
At given time intervals, the entire receptor solution was removed from the test tubes and replaced with an equal volume of fresh receptor solutions previously equilibrated at 35° C. […] From the drug concentration and the volume of the receptor solutions, the area of the system and the time interval, the release rate of the drug from the system was calculated as follows: (drug concentration X volume of receptor)/(area x time) =release rate (μg/cm^2·hr).
(§1) Transdermal systems set forth in Table 1 were prepared according to Example 1 and used to measure permeation through human cadaver skin. […] The edges of epidermis were then folded around the system so that none of the system edge was exposed to the receptor solution. […] The receptor compartment was filled with a known volume of 0.01 M KH2PO4/K2HPO4 which was adjusted to pH 2.5 with 10% H3PO4 buffer solution previously equilibrated at 35° C.
as §1, with “in Table 2 were prepared” for “in Table 1 were prepared”, “according to the procedure set forth in Example 1” for “according to Example 1”

[2] = oral administration; cited from earlier work
[3] = mild to moderate hypertensive patients; cited from earlier work
[4] = in vivo; cited from earlier work

SMILES | lag period on transdermal administration [1] | permeability through the skin, formulations of base compared to formulations of salts ([1]; in general, compared to salts such as fenoldopam mesylate) | clinical benefit [2] | elimination half-life [3] | effect on systolic and diastolic blood pressure [4] | transdermal flux compared to formulations of the base ([1]; myristyl sarcosine as permeation enhancer)
Oc1ccc(C2CNCCc3c2cc(O)c(O)c3Cl)cc1 (stereo not shown) [fenoldopam base] | long lag period | more permeable through the skin |  |  |  | 
Oc1ccc(C2CNCCc3c2cc(O)c(O)c3Cl)cc1 (stereo not shown) [fenoldopam, 6-Chloro-2,3,4,5-tetrahydro-1-(4-hydroxyphenol)-1H-3-benzapine-7,8 diol] |  |  | does not provide any clinical benefit | about 5 minutes | dose-dependent reduction in systolic and diastolic blood pressure | 
Oc1ccc(C2CNCCc3c2cc(O)c(O)c3Cl)cc1 (stereo not shown) [fenoldopam mesylate] | did not exhibit the long lag period |  |  |  |  | higher transdermal fluxes
